{"source": "patent US20170119727A1", "about": "“A THERAPEUTIC PROTOCOL FOR TREATING OVARIAN CANCER” (Bionomics Limited, priority 2014, published 2017)", "key": {"[1]": {"tested_on": "MCF-7", "assay": "Growth inhibition of cancer cell line (Sulforhodamine B or Systmex cell counting assay)", "assay_type": "cell-based", "settings": "Homo sapiens, MCF7, concentration required to inhibit net cell growth by 50%"}, "[2]": {"tested_on": "Human umbilical vein endothelial cells (HUVECs), tumour type activated endothelial cells", "assay": "Proliferation assay - activated endothelium (MTT)", "assay_type": "cell-based", "settings": "for pIC50: Homo sapiens, HUVEC, tumour type activated endothelial cells (HUVECs), 48 hrs, read-out: HUBECs Tum: IC50; for potency against activated (tumor) versus quiescent (normal) endothelial cells: activated compared with quiescent endothelial cells", "protocol": "Proliferation Assay—Activated Endothelium:\n(§1) Human umbilical vein endothelial cells (CC-2519, Clonetics) were plated at 2500 cells/well in EGM2 (CC-3162, Clonetics) in a 96 well plate in triplicate. Cells were cultured overnight at 37° C. 5% CO2. Medium was subsequently replaced with fresh medium including the compound or negative control. Cells were cultured for a period of 48 hrs. An MTT assay was performed to measure changes in cell numbers. Briefly, 20 μl of MTT reagent was added to cells containing 100 μl of EGM2 and incubated at 37° C. for 2 hours. Absorbance was measured at 492 nm."}, "[3]": {"tested_on": "Human umbilical vein endothelial cells (HUVECs), normal quiescent type endothelial cells", "assay": "Proliferation assay - quiescent endothelium (MTT)", "assay_type": "cell-based", "settings": "HUVEC, 48 hrs, read-out: HUBECs Norm: IC50", "protocol": "Proliferation Assay—Quiescent Endothelium:\nas §1, with “15000” for “2500”, “EBM2 (CC-3156, Clonetics)+0.5% FBS (CC-4101A, Clonetics)+GA-1000 (CC-4381A,” for “EGM2 (CC-3162,”, “EBM2+0.5% FBS” for “EGM2”"}, "[4]": {"tested_on": "tubulin", "assay": "Tubulin polymerization inhibition", "assay_type": "biochemical"}, "[5]": {"tested_on": "MDA-MB-231 solid orthotopic tumours", "assay": "Tumour growth inhibition, single agent", "assay_type": "in vivo, Balb/c nu/nu mice", "settings": "Example 2 40 mg/kg i.v., two cycles; vs vehicle; significant from day 4 (p<0.001) through Day 70", "protocol": "Balb/c nu/nu mice bearing MDA-MB-231 solid orthotopic tumours were treated with compound Example 2 at 40 mg/kg. Animals were i.v. dosed with a total of two cycles of Example 2 treatment. Each cycle was dosing on […] followed by a three week no-dosing period. Tumour growth represented as a ratio to initial tumour volume is shown over a total of 72-days.\nTumour growth as well as animal health were monitored for up to 72 days post-day 1 of treatment. […] Significant differences in tumour growth between Example 2 treated (n=64) and vehicle treated (n=20) animals were observed as early as day 4 (p<0.001; unpaired t-test; Prism® analysis) through to Day 70."}, "[6]": {"tested_on": "cisplatin resistant A2780Cis solid orthotopic tumours", "assay": "Tumour growth inhibition, combination with carboplatin and gemcitabine", "assay_type": "in vivo, Balb/c nu/nu mice", "settings": "Example 2 24 mg/kg + carboplatin 50 mg/kg + gemcitabine 12.5 mg/kg i.v.; triplet compared to carboplatin/gemcitabine doublet; up to 21 days", "protocol": "(a) Example 2 Treatment in Combination with Carboplatin (Combination Partner (b)) and Gemcitabine (Combination Partner (c)).\nBalb/c nu/nu mice bearing cisplatin resistant A2780Cis solid orthotopic tumours were treated with compound Example 2 at 24 mg/kg, carboplatin at 50 mg/kg and gemcitabine at 12.5 mg/kg. Animals were i.v. dosed with a single dose of carboplatin, two weekly doses of Example 2 and two weekly doses of gemcitabine. Each cycle of Example 2 and gemcitabine was dosing on days 1 and 8; and each cycle of carboplatin was dosing on day 1.\nTumour growth as well as animal health were monitored for up to 21 days post-day 1 of treatment."}, "[7]": {"assay": "Phase I clinical trial: dose limiting toxicities, adverse events, recommended dose", "assay_type": "in vivo, female ovarian cancer subjects (patients)", "excerpt": "(§2) A standard 3+3 Phase I design was used to determine the recommended dose of compound Example 2 with combination partners (b) and (c). In addition, this design also facilitated the determination of secondary endpoints including progression-free survival (PFS) and adverse event rates. Further correlative endpoints that measure the effect of the drug combination on compound Example 2 pharmacokinetics (PK) were also captured in this trial design.\n(§3) The patient cohort selected for this Phase I clinical trial were female ovarian cancer subjects with a PFS interval of ≧4 months after first or second line platinum-based chemotherapy.\n(§4) The dosing regime is outlined in FIG. 4. This protocol included compound Example 2 escalation at 12 or 16 mg/m^2 IV on days 2 and 9, carboplatin AUC4 on day 1, gemcitabine escalation 800 and 1000 mg/m^2 days 1 and 8. Treatment proceeded across a 21 day cycle for a maximum of 6 cycles. Treatment was followed by single agent maintenance with compound Example 2 at 16 mg/m^2 for a maximum of 6 additional cycles.\n(§5) The key outcomes of this trial include the identification of the maximum tolerated dose (MTD) of compound Example 2 and combination partners (b) and (c), dose limiting toxicities and patient response measured according to CA125 levels or RECIST. Additional plasma biomarker studies that measure concentrations of ferritin, interleukin-8, interleukin-16 and macrophage inflammatory protein-1β provide correlative data relating to the PK of compound Example 2."}, "[8]": {"tested_on": "recurrent ovarian cancer", "assay": "Phase I clinical trial: objective response (CA125 or RECIST)", "assay_type": "in vivo, female ovarian cancer subjects (patients)", "settings": "combination with carboplatin and gemcitabine", "excerpt": "as §2, §3, §4, §5"}, "[9]": {"settings": "Dose level 1 (n = 6), combination with carboplatin and gemcitabine, all cycles"}, "[10]": {"settings": "Dose level 2a (n = 3), combination with carboplatin and gemcitabine, all cycles"}, "[11]": {"settings": "Dose level 2b (n = 60 as printed), combination with carboplatin and gemcitabine, all cycles"}}, "note": "pIC50: −log10 of the molar value."}
{"compound": "COc1ccc(/C=C\\c2cc(OC)c(OC)c(OC)c2)cc1O", "note": "[Comparator A]", "values": [{"measurement": "pIC50", "setting": "[1]", "result": 8.30}, {"measurement": "pIC50", "setting": "[2]", "result": "8.00 to 9.00"}, {"measurement": "pIC50", "setting": "[3]", "result": "8.00 to 9.00"}]}
{"compound": "COc1ccc(/C=C\\c2cc(OC)c(OC)c(OC)c2)cc1O", "note": "[Combretastatin A4]", "values": [{"measurement": "potency against activated (tumor) versus quiescent (normal) endothelial cells", "setting": "[2]", "result": "equally potent against quiescent and activated endothelial cells"}]}
{"compound": "COc1ccc(/C=C\\c2cc(OC)c(OC)c(OC)c2)cc1OP(=O)(O)O", "note": "[Comparator B]", "values": [{"measurement": "pIC50", "setting": "[1]", "result": 8.30}, {"measurement": "pIC50", "setting": "[2]", "result": "8.00 to 9.00"}, {"measurement": "pIC50", "setting": "[3]", "result": "8.00 to 9.00"}]}
{"compound": "COc1ccc2c(C(=O)c3cc(OC)c(OC)c(OC)c3)c(Br)oc2c1", "note": "[Comparator D]", "values": [{"measurement": "pIC50", "setting": "[1]", "result": 6.30}, {"measurement": "pIC50", "setting": "[2]", "result": "6.00 to 7.00"}, {"measurement": "pIC50", "setting": "[3]", "result": "6.00 to 7.00"}]}
{"compound": "COc1cc(C(=O)c2c(C)oc3c(O)c(OC)ccc23)cc(OC)c1OC", "note": "[Example 1, 2-Methyl-7-hydroxy-3-(3,4,5-trimethoxybenzoyl)-6-methoxybenzofuran]", "values": [{"measurement": "pIC50", "setting": "[1]", "result": 8.70}, {"measurement": "pIC50", "setting": "[2]", "result": "9.00 to 10.00"}, {"measurement": "potency against activated (tumor) versus quiescent (normal) endothelial cells", "setting": "[2]", "result": "high potency towards tumor endothelial cells (activated) over normal endothelial cells (quiescent)"}, {"measurement": "pIC50", "setting": "[3]", "result": "7.00 to 8.00"}, {"measurement": "tubulin polymerization inhibition", "setting": "[4]", "result": "potent tubulin polymerization inhibitor"}]}
{"compound": "COc1ccc2c(C(=O)c3cc(OC)c(OC)c(OC)c3)coc2c1", "note": "[Comparator C]", "values": [{"measurement": "pIC50", "setting": "[1]", "result": 7.26}, {"measurement": "pIC50", "setting": "[2]", "result": "7.00 to 8.00"}, {"measurement": "pIC50", "setting": "[3]", "result": "7.00 to 8.00"}]}
{"compound": "COc1cc(C(=O)c2c(C)oc3c(OP(=O)([O-])[O-])c(OC)ccc23)cc(OC)c1OC.[Na+].[Na+]", "note": "[Example 2, Disodium 6-methoxy-2-methyl-3-(3,4,5-trimethoxybenzoyl)benzofuran-7-yl phosphate]", "values": [{"measurement": "Tumour growth (ratio to initial tumour volume)", "setting": "[5]", "result": "tumour growth inhibition"}, {"measurement": "Tumour growth (tumor volume)", "setting": "[6]", "result": "tumour growth inhibition"}, {"measurement": "Hypertension Gr 3", "setting": "[7]; [9]", "result": 1}, {"measurement": "Neutropenia Gr 3", "setting": "[7]; [9]", "result": 3}, {"measurement": "Neutropenia Gr 4", "setting": "[7]; [9]", "result": 2}, {"measurement": "Number of DLTs", "setting": "[7]; Dose level 1: Example 2 12 mg/m2 + carboplatin AUC4 + gemcitabine 800 mg/m2, 6 patients", "result": 1}, {"measurement": "Hypersensitivity Gr 3", "setting": "[7]; [10]", "result": 1}, {"measurement": "Neutropenia Gr 3", "setting": "[7]; [10]", "result": 1}, {"measurement": "Neutropenia Gr 4", "setting": "[7]; [10]", "result": 2}, {"measurement": "Thrombocytopenia Gr 4", "setting": "[7]; [10]", "result": 2}, {"measurement": "Number of DLTs", "setting": "[7]; Dose level 2a: Example 2 16 mg/m2 + carboplatin AUC4 + gemcitabine 800 mg/m2, 3 patients", "result": 2}, {"measurement": "Anaemia Gr 3", "setting": "[7]; [11]", "result": 1}, {"measurement": "Neutropenia Gr 3", "setting": "[7]; [11]", "result": 5}, {"measurement": "Thrombocytopenia Gr 3", "setting": "[7]; [11]", "result": 2}, {"measurement": "adverse events or dose limiting toxicities", "setting": "[7]; Dose level 2b: Example 2 12 mg/m2 + carboplatin AUC4 + gemcitabine 1000 mg/m2", "result": "no adverse events or dose limiting toxicities were observed"}, {"measurement": "Number of DLTs", "setting": "[7]; Dose level 2b: Example 2 12 mg/m2 + carboplatin AUC4 + gemcitabine 1000 mg/m2, 6 patients", "result": 0}, {"measurement": "safety and tolerability", "setting": "[7]; combination with combination partners (b) carboplatin and (c) gemcitabine, subjects with recurrent ovarian cancer", "result": "safe and tolerable"}, {"measurement": "recommended dose", "setting": "[7]; with carboplatin AUC4 and gemcitabine 1000 mg/m^2 (dose level 2b)", "result": 12, "unit": "mg/m^2"}, {"measurement": "Objective responses (CA125 or RECIST) %", "setting": "[8]; Dose level 1, 6 accrued", "result": 68, "unit": "%"}, {"measurement": "Objective responses (CA125 or RECIST) N", "setting": "[8]; Dose level 1, 6 accrued", "result": 4}, {"measurement": "Objective responses (CA125 or RECIST) %", "setting": "[8]; Dose level 2a, 3 accrued", "result": 33, "unit": "%"}, {"measurement": "Objective responses (CA125 or RECIST) N", "setting": "[8]; Dose level 2a, 3 accrued", "result": 1}, {"measurement": "Objective responses (CA125 or RECIST) %", "setting": "[8]; Dose level 2b, 6 accrued", "result": 83, "unit": "%"}, {"measurement": "Objective responses (CA125 or RECIST) N", "setting": "[8]; Dose level 2b, 6 accrued", "result": 5}, {"measurement": "Objective responses (CA125 or RECIST) %", "setting": "[8]; all dose levels, 15 accrued", "result": 68, "unit": "%"}, {"measurement": "Objective responses (CA125 or RECIST) N", "setting": "[8]; all dose levels, 15 accrued", "result": 10}]}
